Experimental data from patent US20150353626A1, “APOLIPOPROTEIN A-I DERIVED PEPTIDES FOR TREATMENT OF HYPERGLYCAEMIA” (priority 2013, published 2015).
Ends that are not written are not given here.

Columns and labels:
[1] = tested on: ACC; assay: Western blot for phosphorylated ACC in L6 myotube lysates; assay type: cell-based; conditions: L6 myotubes, 60 minutes; rHDL 700 μg/ml apoA-I; phenformin 0.4 mmol/l; FIG. 3c,d
Protocol: (§1) Prior to stimulation or treatment cultured myoblast cells were serum starved for 4 hours in serum-free α-MEM and all subsequent treatments, including insulin or phenformin as positive controls (Sigma), were performed in serum free a-MEM. After treatments, cells were washed with ice cold PBS buffer and lysed on ice using a non-denaturing lysis buffer (1% Triton X-100, 50 mmol/l Tris, 150 mmol/l NaCl, pH 8.0) containing protease and phosphatase inhibitors (Roche). Lysates were centrifuged at 16,000×g, 20 minutes at 4° C. and BCA protein assay (Pierce) was performed on supernatants. Equal protein amounts were separated by SDS-PAGE and transferred to nitrocellulose membranes. pAMPK, AMPK, pACC, pAkt, Akt and tubulin were used for immunodetection with IRDye 800CW and 680RD secondary antibodies (LI-COR). Blots were imaged using the Odyssey Fc system and quantified using Image studio v2.0 software.
(§2) To dissect the effect of discoidal rHDL on a non-insulin dependent signaling pathway, we conducted western blotting using lysates from L6 myotubes incubated with rHDL. […] Phenformin was used as a positive control, inducing a 1.98±0.33-fold (p=≦0.05) and 2.7±0.74-fold (p=≦0.05) elevation of phosphorylated AMPK and ACC, respectively, at a concentration of 0.4 mmol/l. […] Representative immunoblots of those quantified for FIGS. 3a, c and f are given in FIGS. 3b, d and e, respectively.

[2] = tested on: AMPK; assay: Western blot for phosphorylated AMPK in L6 myotube lysates; assay type: cell-based; conditions: L6 myotubes, 60 minutes; rHDL 700 μg/ml apoA-I; phenformin 0.4 mmol/l; FIG. 3a,b
Protocol: as §1
as §2, with “respectively. […]” for “respectively.”

[3] = tested on: insulin resistant C57Bl/6 mice; assay: Glucose tolerance test in high-fat diet fed (HFD) mice; assay type: in vivo, mouse; conditions: glucose load 3 hours later
Protocol: Male C57BL/6 mice (Taconic) were used at 9-12 weeks of age. Animals were on a 12 hour light cycle with non-restricted food and water. The HFD animals were fed an HFD (D12492, 60% fat content; Research Diets) for 2 weeks. All animal procedures were approved by the Malmo/Lund Committee for Animal Experiment Ethics, Lund, Sweden. HFD mice fasted overnight (12 hours) were injected intra peritoneal (i.p.) with apoA-I peptides as listed above ([…] in PBS pH 7.4 for the 54-mer fragment and 6-7 mg/kg for other fragments in PBS, pH 7.4; control animals received NaCl) and this was followed by collection of serum samples at the indicated times. Glucose (50 mg/mouse) was injected i.p. 3 hours after treatments, followed by collection of serum samples at the indicated times. Blood glucose levels were measured (OnetouchUltra2; Lifescan), and insulin levels were assayed in serum using ELISA (Mercodia).

[4] = Circular dichroism spectroscopy, alpha-helical content; assay type: physicochemical; conditions: 0.2 mg/ml in PBS pH 7.4, 25° C.
Protocol: CD measurements were performed on a Jasco J-810 spectropolarimeter equipped with a Jasco CDF-4265 Peltier set to 25° C. ApoA-I (full-length and the 190-234 polypeptide fragment) was diluted to 0.2 mg/ml in PBS (final concentration was 25 mmol/l phosphate, 25 mmol/l NaCl, pH 7.4), placed in a 0.1 mm quartz cuvette and, after extensive purging with nitrogen, scanned in the region 200 to 260 nm (scan speed was 20 nm/min). Averages of five scans were baseline-subtracted (PBS; 25 mmol/l phosphate, 25 mmol/l NaCl) and the alpha-helical content was calculated from the molar ellipticity at 222 nm as previously described (Petrlova et al. (2012) J Lipid Res 53: 390-398).

[5] = apo-state versus discoidal HDL; Saito et al. (2004); cited from earlier work
[6] = tested on: L6 myotubes; assay: Glucose uptake in L6 myotubes (2-[3H]-deoxy-D-glucose); assay type: cell-based; conditions: 2 h serum starved, 50 μg/ml (1.6 μmol/l) apoA-I or 100 nmol/l insulin, 1 hour, FIG. 1b
Protocol: L6 myoblasts (ATCC #CRL-1458) were grown in α-MEM (Invitrogen) supplemented with 10% FBS (Sigma) and 1% antibiotic/antimycotic (Penicillin, streptomycin, amphotericin B; Invitrogen). Differentiation to myotubes was achieved by switching from growth media to 2% FBS a-MEM for 6-7 or 6-12 days. Cells were maintained at 37° C. and 5% CO2.
Prior to stimulation (or treatment) cells were starved for 2 hours in serum-free a-MEM and all subsequent treatments, which were performed in triplicate and included cytochalasin B (Sigma) as a measure of cell associated non-specific radioactivity, were performed in uptake buffer (140 mmol/l NaCl, 20 mmol/l HEPES, 5 mmol/l KCl, 2.5 mmol/l MgSO4, 1 mmol/l CaCl2, pH 7.4). After stimulation, treatments were replaced with 10 μmol/l 2-deoxy-D-glucose (Sigma), 10 μmol/l 2-[3H]-deoxy-D-glucose (Perkin Elmer) in uptake buffer for 15 mins at room temperature. Cells were then washed twice with ice cold PBS and lysed with 1 mol/l NaOH on ice. Lysates were collected and radioactivity quantified by scintillation counting.
In order to investigate the effect of discodial HDL (rHDL) on GLUT4 translocation and glucose uptake, we produced recombinant human apoA-I and reconstituted HDL needed for cell incubations. L6 myotubes were incubated with 50 μg/ml (1.6 μmol/l) apoA-I for 1 hour followed by a glucose uptake assay as described above. […] Next, L6 myotubes were treated by incubation with 50 μg/ml discodial rHDL (expressed as total concentration of apoA-I in rHDL, given 2 apoA-I molecules per particle) for 1 hour. […] This experiment was thereafter repeated in more controlled manner including cell number and quality (cells were similarly treated during differentiation from myoblasts to multinuclear myotubes, with respect to the time between splitting cells, cell density, passage of cells used.) (FIG. 7c).
The relative effect of specific regions of apoA-I to increase glucose uptake was investigated using truncated protein fragments corresponding to residues 1-189 (N-terminal/central domain), 44-189 (central domain), 44-243 (central/C-terminal domain) and 190-243 (C-terminal domain) of full-length apoA-I (FIG. 4a). The treatments with incubation of truncated protein fragments were performed as described above for treatment of L6 myotubes with full-length apoA-I and followed by a glucose uptake assay as described above.
To test for the contribution of the constituent phospholipid to rHDL-induced glucose uptake in L6 myotubes, rHDL made with DMPC was also produced and compared to 100 nm DMPC vesicles containing no apoA-I protein. Stable 100 nm diameter vesicles can be synthesized with DMPC in the absence of apoA-I and was therefore used as a phospholipid control. The effect on the glucose uptake was tested as described above. […] To also test for the contribution of the constituent POPC phospholipid to rHDL-induced glucose uptake, rHDL made with POPC was compared with 100 nm POPC vesicles containing no apoA-I protein.

[7] = molecular target: the molecule itself; assay: blue native PAGE, coomassie stained; self-association (homo-oligomer) in solution and after 1 hour with L6 myotubes
Text: It is known that the 190-234 polypeptide fragment can form discoidal particles by solubilisation of lipid in solution (Vedhachalan et al. (2010) J Biol Chem 285:31965-31973), which can be visualised as oligomers on native PAGE. […] Lipid-free apoA-I and rHDL were included on the gel as a full length protein monomer and dimer reference.

[8] = 18-mer peptides, single injection 7 mg/kg, FIG. 12
[9] = 23- or 27-mer peptides, single injection 6-7 mg/kg, FIG. 11

With `[H]/N=C(/N)N/C(=N/[H])NCCc1ccccc1` [Phenformin, phenformin, reference compound] the “levels of phosphorylated ACC” value [1] was 2.7±0.74 fold and the “levels of phosphorylated AMPK” value [2] was 1.98±0.33 fold.

With “SEQ ID NO: 2: fragment consisting of amino acids 190-207 of human ApoA-I (AEYHAKATEHLSTLSEKA; listed as Homo Sapiens)” the “glucose tolerance capacity / capacity to clear blood glucose (in words)” value (shortened to “glucose tolerance capacity / capacity”) [3, 8] was “showed particular increased capacity to clear blood glucose”.

With “SEQ ID NO: 518: fragment consisting of amino acids 204-226 of human ApoA-I (SEKAKPALEDLRQGLLPVLESFK; listed as Homo Sapiens)” the “glucose tolerance capacity / capacity” value [3, 9] was “showed particular increased capacity to clear blood glucose”.

With “SEQ ID NO: 4: fragment consisting of amino acids 226-243 of human ApoA-I (KVSFLSALEEYTKKLNTQ; listed as Homo Sapiens)” the “glucose tolerance capacity / capacity” value [3, 8] was “showed particular increased capacity to clear blood glucose”.

In the case of “apoA-I: recombinant full-length human apolipoprotein A-I, amino acids 1-243, lipid-free”, the “helical content from molar ellipticity at 222 nm” value [4] is given as 43%, the alpha-helical secondary structure [5] is given as “about 44%” and the increased glucose uptake [6] is given as 1.3 fold.

With “SEQ ID NO: 8: fragment consisting of amino acids 217-243 of human ApoA-I (GLLPVLESFKVSFLSALEEYTKKLNTQ; listed as Homo Sapiens)” the “glucose tolerance capacity / capacity” value [3, 9] was “showed particular increased capacity to clear blood glucose”.

B1: 190-243 polypeptide fragment of human apoA-I (SEQ ID NO: 1) (peptide, not shown: small tags and cut ends)
chain: AEYHAKATEHLSTLSEKAKPALEDLRQGLLPVLESFKVSFLSALEEYTKKLNTQ
modifications: also: N-terminal hexa-His tag (letters not given here)
notes: Recombinant, expressed in E. coli
B1: binds [7].
